Measurements as given in patent publication US20200352914A1, “METHODS OF TREATING HYPERTENSION WITH ACTIVATORS OF TIE-2” (Aerpio Pharmaceuticals, Inc., priority 2019, published 2020).

Legend:
human endothelial cells = assay: NO assay (nitrite in supernatant) in human endothelial cells; assay type: cell-based; conditions: 0.3-30 μmol/L, 30 minutes
Protocol: Confluent human endothelial cell monolayers were cultured overnight in MCDB131 containing 0.1% BSA and sepiapterin (10 μmol/L). The monolayers were then incubated with increasing concentrations of Compound 2 (0.3-30 μmol/L) or solvent (DMSO) for 30 minutes. In separate experiments, cells treated with a control siRNA or siRNA directed against ABL1 were cultured in MCDB131 containing 0.1% BSA and sepiapterin (10 μmol/L), and then treated with Compound 2 (30 μmol/L) or solvent (DMSO) for 30 minutes before the addition of Yoda1 (1 μmol/L) for an additional 30 minutes. HEK293 cells co-transfected with wild-type eNOS and wild-type ABL1, DN ABL1, or GFP (as a control) were cultured overnight in minimal essential medium containing 0.5% heat-inactivated FCS and sepiapterin (10 μmol/L). Aliquots of the culture media were collected before and after each treatment. Potential cell debris was removed by centrifugation of the media at 1000 rpm for 5 minutes. NO release was assessed by determining the amount of nitrite in the cell supernatants using a Nitric Oxide Analyzer after reaction with iodide and acetic acid under nitrogen at room temperature.
To investigate the role of VE-PTP on the regulation of eNOS, human endothelial cells were treated with increasing concentrations of Compound 2 (for 30 minutes) and the generation of NO was assessed using a NO analyzer.

eNOS = eNOS and Akt phosphorylation in human endothelial cells (immunoprecipitation, immunoblotting); assay type: cell-based
Protocol: Confluent monolayers of human endothelial cells expressing FLAG-tagged eNOS cultured overnight in MCDB131 containing 0.1% BSA and then incubated with increasing concentrations of Compound 2 (0.3-30 μmol/L) or solvent (DMSO) for 30 minutes. In separate experiments, human endothelial cells were cultured overnight in MCDB131 containing 0.1% BSA and then incubated treated with Compound 2 (30 μmol/L) or solvent for 30 minutes and then stimulated with Yoda1 (1 μmol/L) or solvent for an additional 30 minutes. To inhibit Src, cells were pre-incubated with PP2 (1 μmol/L) for 30 min before incubation with Compound 2 and stimulation with Yoda1. After two washes with cold PBS, cells were collected with the aid of cell scrapers in a lysis buffer containing Tris/HCl pH 7.5 (50 mmol/L), NaCl (150 mmol/L), Triton X-100 (1%), NaPPi (10 mmol/L), NaF (20 mmol/L), orthovanadate (2 mmol/L), okadaic acid (10 nmol/L), β-glycerophosphate (50 mmol/L), phenylmethylsulfonyl fluoride (230 μmol/L), and EDTA-free protease inhibitors mix. The cell mixture was incubated for 30 minutes at 4° C. with vortexing, followed by centrifugation at 13000 rpm for 10 minutes at 4° C. To assess the eNOS-VE-PTP interaction, the following modifications were applied: 1) cells were incubated with the lysis buffer for one hour on an end-over-end rocker at 4° C. and gently vortexed until no cell clumps were observed; 2) lysates were not centrifuged after lysis. FLAG-tagged eNOS was immunoprecipitated using 30 μL of packed Anti-FLAG M2 Affinity Gel per mg protein lysate overnight. The recovered immunoprecipitates were washed three times with the lysis buffer, eluted by boiling samples for 10 minutes in SDS sample buffer, and then analyzed by SDS-PAGE and immunoblotting.
Protein samples were separated by SDS-PAGE and then transferred to […] nitrocellulose membranes. Membranes were incubated overnight with primary antibodies against phospho-Tyr81 eNOS, phospho-Ser1177 eNOS, phospho-Ser633 eNOS, eNOS, phospho-Ser473 Akt, Akt, ABL1, VE-PTP, GAPDH, β-actin, followed by species-specific secondary antibodies anti-IgG conjugated with HRP. Proteins were visualized by enhanced chemiluminescence.

[1] = 30 μmol/L 30 minutes, then Yoda1 1 μmol/L 30 min

CCc1nc([C@H](Cc2ccc(NS(=O)(=O)O)cc2)NC(=O)[C@H](Cc2ccccc2)NC(=O)OC)cs1 [Compound 2]
basal NO production (nitrite in supernatant) (human endothelial cells): enhanced basal NO production
Yoda1-induced phosphorylation of Akt on Ser473 and eNOS on Ser1177 (eNOS; [1]): also increased
Yoda1-induced phosphorylation of eNOS on Ser633 (eNOS; [1]): not affected
Yoda1-induced phosphorylation of eNOS on Tyr81 (eNOS; [1]): markedly enhanced
eNOS phosphorylation on Tyr81 and Ser1177 (eNOS; 0.3-30 μmol/L, 30 minutes): led to phosphorylation of eNOS on Tyr81 and Ser1177
